Here are results for 10 compounds from EP2212334B1, “PROTEASOME INHIBITORS” (Millennium Pharmaceuticals, Inc., priority 2007, dated 2009).

For orientation: IC50 means the concentration needed to halve the response being measured. The low end stands for greater potency in that assay, the high end for weaker potency in that assay.

In the assay the target is T1, rat spleen 20S immunoproteasome (Rattus norvegicus, UniProt P28064+P28077).
T1 construct: rat spleen 20S immunoproteasome (Boston Biochem, 0.25 nM final); purchased Boston Biochem; host or cells: rat spleen (tissue-derived 20S immunoproteasome)
The experiment in a line: Rat 20S (PA28 activation) β1i and β5i Proteasome Assays (result stated for one or both). In kind it is biochemical. The settings on record: human PA28 activator, Ac-PAL-AMC (β1i) or Ac-ANW-AMC (β5i) substrate, not stated which of the two assays. How it is done:
Rat 20S (PA28 activation) β1i Proteasome Assay
(§1) To 1 µL of test compound dissolved in DMSO in a 384-well black microtiter plate is added 25 µL of assay buffer at 37 °C containing human PA28 activator (Boston Biochem, 12 nM final) with Ac-PAL-AMC (•1i selective substrate) (40 µM final), followed by 25 µL of assay buffer at 37 °C containing rat spleen 20S immunoproteasome (Boston Biochem, 0.25 nM final). Assay buffer is composed of 20 mM HEPES, 0.5 mM EDTA and 0.01% BSA, pH7.4. The reaction is followed on a BMG Galaxy plate reader (37 °C, excitation 380 nm, emission 460 nm, gain 20). Percent inhibition is calculated relative to 0% inhibition (DMSO) and 100% inhibition (10 µM bortezomib) controls.
Rat 20S (PA28 activation) β5i Proteasome Assay
as §1, with “Ac-ANW-AMC •5i” for “Ac-PAL-AMC (•1i”, “substrate (30” for “substrate) (40”, “final)” for “final),”, “(37°C,” for “(37 °C,”
With `Cc1cccc(C[C@H](NC(=O)C2(NC(=O)c3ccc(Cl)cc3)CC2)B(O)O)c1` [Compound 2, [(1R)-1-[((1-[(4-chlorobenzoyl)amino]cyclopropyl)carbonyl)amino]-2-(3-methylphenyl)ethyl]boronic acid], the half-inhibitory concentration (IC50) was no more than 10000 nM. Compound `CC(C)C[C@H](NC(=O)[C@]1(NC(=O)c2cnccn2)C[C@H]1c1ccccc1)B(O)O` [Compound 3, {(1R)-3-methyl-1-[(((1S,2S)-2-phenyl-1-[(pyrazin-2-ylcarbonyl)amino]-cyclopropyl}carbonyl)amino]butyl)boronic acid] had an IC50 of no more than 1000 nM. In turn, `CC(C)C[C@H](NC(=O)C1(NC(=O)OCc2ccccc2)CCC1)B(O)O` [Compound 18, ((1R)-1-{[(1-{[(benzyloxy)carbonyl]amino}cyclobutyl)carbonyl]amino}-3-methylbutyl)boronic acid] came in with an IC50 of no more than 1000 nM. With `Cc1ccc(C[C@H](NC(=O)C2(NC(=O)c3cnccn3)CC2)B(O)O)cc1` [Compound 19, {(1R)-2-(4-methylphenyl)-1-[({1-[(pyrazin-2-ylcarbonyl)amino]cyclopropyl}-carbonyl)amino]ethyl}boronic acid] the figure was no more than 10000 nM; with `CC(C)C[C@H](NC(=O)C(C)(C)NC(=O)c1cnc2ccccc2n1)B(O)O` [Compound 21, [(1R)-3-methyl-1-({2-methyl-2-[(quinoxalin-2-ylcarbonyl)amino]propanoyl}-amino)butyl]boronic acid], no more than 1000 nM. Regarding `CC(C)C[C@H](NC(=O)C1(NC(=O)Cc2ccccc2)CC1)B(O)O` [Compound 22, {(1R)-3-methyl-1-[({1-[(phenylacetyl)amino]cyclopropyl}carbonyl)amino]-butyl}boronic acid], the IC50 is no more than 1000 nM. `CC(C)C[C@H](NC(=O)C(C)(C)NC(=O)c1ccc(Cl)cc1)B(O)O` [Compound 25, [(1R)-1-({2-[(4-chlorobenzoyl)amino]-2-methylpropanoyl]amino)-3-methylbutyl]boronic acid] registered an IC50 of no more than 1000 nM. Consider `CC(C)C[C@H](NC(=O)C(C)(C)NC(=O)c1cnccn1)B(O)O` [Compound 28, [(1R)-3-methyl-1-({2-methyl-2-[(pyrazin-2-ylcarbonyl)amino]propanoyl}-amino)butyl]boronic acid], for which the IC50 is no more than 1000 nM. The figure for `CC(C)C[C@H](NC(=O)C1(NC(=O)c2ccccc2C(F)(F)F)CC1)B(O)O` [Compound 30, ((1R)-3-methyl-1-{[(1-{[2-(trifluoromethyl)benzoyl]amino}cyclopropyl)-carbonyl]amino)butyl)boronic acid] is no more than 1000 nM. In turn, `CC(C)C[C@H](NC(=O)C(C)(C)NC(=O)OCc1ccccc1)B(O)O` [Compound 32, ((1R)-1-[(2-([(benzyloxy)carbonyl]amino)-2-methylpropanoyl)amino]-3-methylbutyl)boronic acid] yielded an IC50 of no more than 1000 nM.
